Assays:
[1] = estrogenic effectiveness in vivo; details: applied orally in vivo
steroid sulfatase = target: T1, steroid sulfatase (Homo sapiens, UniProt P08842); details: found by M. J. Reed et al.; cited from earlier work
T1 sequence (P08842 22-583): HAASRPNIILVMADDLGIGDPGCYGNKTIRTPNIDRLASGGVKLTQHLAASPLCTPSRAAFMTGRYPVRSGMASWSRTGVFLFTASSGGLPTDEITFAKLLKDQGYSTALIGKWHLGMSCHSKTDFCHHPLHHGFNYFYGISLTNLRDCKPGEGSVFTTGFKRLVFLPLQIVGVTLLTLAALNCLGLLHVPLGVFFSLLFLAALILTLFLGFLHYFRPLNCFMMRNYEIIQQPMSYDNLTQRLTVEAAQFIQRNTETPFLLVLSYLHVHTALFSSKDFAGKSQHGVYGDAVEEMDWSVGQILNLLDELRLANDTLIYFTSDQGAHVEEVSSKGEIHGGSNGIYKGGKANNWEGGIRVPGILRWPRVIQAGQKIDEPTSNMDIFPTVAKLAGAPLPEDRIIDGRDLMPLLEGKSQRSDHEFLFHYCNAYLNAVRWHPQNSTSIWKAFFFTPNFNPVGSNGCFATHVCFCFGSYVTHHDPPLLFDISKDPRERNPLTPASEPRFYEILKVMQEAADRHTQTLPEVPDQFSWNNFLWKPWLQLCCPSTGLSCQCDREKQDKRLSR

| Compound | estrogenic effectiveness compared with estradiol-3-sulfamate ([1]; relative to estradiol-3-sulfamate) | estrogenic effectiveness compared with estriol ([1]; relative to estriol) | sulfatase-inhibiting activity (steroid sulfatase) |
| --- | --- | --- | --- |
| C[C@]12CC[C@@H]3c4ccc(OS(N)(=O)=O)cc4CC[C@H]3[C@@H]1C[C@@H](Br)[C@@H]2O [16α-bromoestradiol-3-sulfamate, 16α-Bromo-3-sulfamoyloxy-13β-methyl-1,3,5(10)-gonatrien-17β-ol] | three times more effective | five times more effective | – |
| C[C@]12CC[C@@H]3c4ccc(OS(N)(=O)=O)cc4CC[C@H]3[C@@H]1CC[C@@H]2O [estradiol-3-sulfamate] | – | – | strong sulfatase-inhibiting activity |
| C[C@]12CC[C@@H]3c4ccc(OS(N)(=O)=O)cc4CC[C@H]3[C@@H]1CCC2=O [estrone-3-sulfamate] | – | – | strong sulfatase-inhibiting activity |

From US6339079B1, “Steroid sulfamates, method for the production and use thereof” (id pharma GmbH, priority 1997, dated 2002)
